The subject of the experiment is L1210 leukemia ip in BDF1 mice, survival T/C. As to the kind of experiment: NCI In Vivo Anticancer Drug Screen. Data for tumor model L1210 Leukemia (intraperitoneal) in B6D2F1 (BDF1) mice. Particulars: endpoint: mean survival time, higher = longer survival. A digest of the protocol:
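In this screen, tumor-bearing mice given compound are compared to those given vehicle, and their survival values are reported as a treated-to-control quotient.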

Where [1] appears, read: dose: 100.0 mg/kg/injection, schedule: Q01DX009 (ip), vehicle: saline with Tween-80.
[2] abbreviates: dose: 200.0 mg/kg/injection, schedule: Q01DX009 (ip), vehicle: saline with Tween-80.
The mark [3] stands for this setting: dose: 400.0 mg/kg/injection, schedule: Q01DX009 (ip), vehicle: saline with Tween-80.
Setting [4] is: dose: 100.0 mg/kg/injection, schedule: Q01DX009 (ip), vehicle: Klucel (hydroxypropylcellulose) (HPC).
The mark [5] stands for this setting: dose: 100.0 mg/kg/injection, schedule: Q04DX003 (ip), vehicle: Klucel (hydroxypropylcellulose) (HPC).
Setting [6] is: dose: 200.0 mg/kg/injection, schedule: Q04DX003 (ip), vehicle: Klucel (hydroxypropylcellulose) (HPC).
Setting [7] is: dose: 400.0 mg/kg/injection, schedule: Q04DX003 (ip), vehicle: Klucel (hydroxypropylcellulose) (HPC).
The mark [8] stands for this setting: dose: 100.0 mg/kg/injection, schedule: Q04DX002 (ip), vehicle: Klucel (hydroxypropylcellulose) (HPC).
The mark [9] stands for this setting: dose: 200.0 mg/kg/injection, schedule: Q04DX002 (ip), vehicle: Klucel (hydroxypropylcellulose) (HPC).
Where [10] appears, read: dose: 400.0 mg/kg/injection, schedule: Q04DX002 (ip), vehicle: Klucel (hydroxypropylcellulose) (HPC).

“And” between values parts separate entries of the source, which are not always exact repeats. Equal values may be shown once. Inconclusive results and toxic doses are left out.

On to `CN1C2CCC1CC(=C(C#N)C(N)=O)C2`, for which the T/C was 100 % of control (dose: 3.13 mg/kg/injection, schedule: Q01DX009 (ip), vehicle: Klucel (hydroxypropylcellulose) (HPC)); 107 % of control (dose: 3.13 mg/kg/injection, schedule: Q04DX003 (ip), vehicle: Klucel (hydroxypropylcellulose) (HPC)); 98 % of control (dose: 6.25 mg/kg/injection, schedule: Q01DX009 (ip), vehicle: Klucel (hydroxypropylcellulose) (HPC)); 102 % of control (dose: 6.25 mg/kg/injection, schedule: Q04DX003 (ip), vehicle: Klucel (hydroxypropylcellulose) (HPC)); 104 % of control and 88 % of control (dose: 12.5 mg/kg/injection, schedule: Q04DX003 (ip), vehicle: Klucel (hydroxypropylcellulose) (HPC)).
Turning to `O=C(c1ccccc1)c1cc(Cl)ccc1NC(=O)C(Cl)(Cl)Cl`, the T/C (dose: 50.0 mg/kg/injection, schedule: Q01DX001 (ip), vehicle: saline with Tween-80) was 97 % of control; the T/C (dose: 100.0 mg/kg/injection, schedule: Q01DX001 (ip), vehicle: saline with Tween-80) was 102 % of control; the T/C under setting [1] was 95 % of control and 89 % of control; the T/C (dose: 100.0 mg/kg/injection, schedule: Q04DX002 (ip), vehicle: saline with Tween-80) was 96 % of control and 104 % of control; the T/C (dose: 200.0 mg/kg/injection, schedule: Q01DX001 (ip), vehicle: saline with Tween-80) was 92 % of control; the T/C under setting [2] is 95 % of control and 89 % of control. Moreover, the T/C is 93 % of control and 96 % of control (dose: 200.0 mg/kg/injection, schedule: Q04DX002 (ip), vehicle: saline with Tween-80); 91 % of control (dose: 400.0 mg/kg/injection, schedule: Q01DX001 (ip), vehicle: saline with Tween-80); 89 % of control and 91 % of control under setting [3]; 101 % of control and 89 % of control (dose: 400.0 mg/kg/injection, schedule: Q04DX002 (ip), vehicle: saline with Tween-80).
For the compound `Cc1ccc(S(=O)(=O)Oc2ccc(-c3ccc(Br)cc3)cc2)cc1`, the T/C reads like this: (dose: 75.0 mg/kg/injection, schedule: Q01DX001 (ip), vehicle: saline) 97 % of control; (dose: 150.0 mg/kg/injection, schedule: Q01DX001 (ip), vehicle: saline) 105 % of control; (dose: 300.0 mg/kg/injection, schedule: Q01DX001 (ip), vehicle: saline) 105 % of control.
As to `NC(=O)N=Nc1ccccc1`, the T/C was 105 % of control (dose: 100.0 mg/kg/injection, schedule: Q01DX001 (ip), vehicle: other); 91 % of control (dose: 200.0 mg/kg/injection, schedule: Q01DX001 (ip), vehicle: other); 98 % of control (dose: 400.0 mg/kg/injection, schedule: Q01DX001 (ip), vehicle: other).
With `C/C=C/CC1C(=O)N(c2ccccc2)N(c2ccccc2)C1=O`, the T/C by setting is: (dose: 25.0 mg/kg/injection, schedule: Q01DX009 (ip), vehicle: Klucel (hydroxypropylcellulose) (HPC)) 106 % of control; (dose: 50.0 mg/kg/injection, schedule: Q01DX009 (ip), vehicle: Klucel (hydroxypropylcellulose) (HPC)) 95 % of control; under setting [4], 97 % of control.
As for `CC(=O)C(CCS(C)(=O)=O)(CCS(C)(=O)=O)C(=O)O`, the T/C is, setting by setting: under setting [5], 107 % of control; under setting [6], 94 % of control; under setting [7], 103 % of control.
`CNC(=S)N(C)c1ccccc1`: the T/C under setting [8] was 100 % of control, the T/C under setting [9] is 107 % of control and the T/C under setting [10] was 104 % of control.
In the case of `O=C(COc1ccccc1Cl)NCc1ccc(Cl)cc1`, the T/C is, setting by setting: under setting [4], 92 % of control; under setting [5], 93 % of control; (dose: 200.0 mg/kg/injection, schedule: Q01DX009 (ip), vehicle: Klucel (hydroxypropylcellulose) (HPC)) 88 % of control; under setting [6], 95 % of control; (dose: 400.0 mg/kg/injection, schedule: Q01DX009 (ip), vehicle: Klucel (hydroxypropylcellulose) (HPC)) 103 % of control; under setting [7], 93 % of control.
`COc1cc([N+](=O)[O-])c2nc(Cl)ccc2c1`: the T/C reads like this: (dose: 100.0 mg/kg/injection, schedule: Q01DX001 (ip), vehicle: carboxymethylcellulose (CMC)) 100 % of control; (dose: 200.0 mg/kg/injection, schedule: Q01DX001 (ip), vehicle: carboxymethylcellulose (CMC)) 88 % of control; (dose: 400.0 mg/kg/injection, schedule: Q01DX001 (ip), vehicle: carboxymethylcellulose (CMC)) 97 % of control.
For `O=C(Nc1ccc(C2=NCCN2)cc1)Nc1cccc(NC(=S)Nc2ccc(C3=NCCN3)cc2)c1`, the T/C runs as follows: (dose: 1.88 mg/kg/injection, schedule: Q01DX Z (ip), vehicle: saline) 95 % of control; (dose: 3.75 mg/kg/injection, schedule: Q01DX Z (ip), vehicle: saline) 103 % of control; (dose: 7.5 mg/kg/injection, schedule: Q01DX Z (ip), vehicle: saline) 113 % of control; (dose: 15.0 mg/kg/injection, schedule: Q01DX Z (ip), vehicle: saline) 150 % of control; (dose: 15.0 mg/kg/injection, schedule: Q01DX Z (oral), vehicle: saline) 97 % of control; (dose: 30.0 mg/kg/injection, schedule: Q01DX Z (ip), vehicle: saline) 150 % of control. The T/C (dose: 30.0 mg/kg/injection, schedule: Q01DX Z (oral), vehicle: saline) is 100 % of control; the T/C (dose: 60.0 mg/kg/injection, schedule: Q01DX Z (oral), vehicle: saline) is 97 % of control; the T/C (dose: 120.0 mg/kg/injection, schedule: Q01DX Z (oral), vehicle: saline) is 107 % of control.
On to `O=C1OC(c2ccc(F)c3ccccc23)C2CCCCC12` (stereo not drawn), for which the T/C reads like this: (dose: 100.0 mg/kg/injection, schedule: Q01DX001 (ip), vehicle: Klucel (hydroxypropylcellulose) (HPC)) 102 % of control; (dose: 200.0 mg/kg/injection, schedule: Q01DX001 (ip), vehicle: Klucel (hydroxypropylcellulose) (HPC)) 102 % of control; (dose: 400.0 mg/kg/injection, schedule: Q01DX001 (ip), vehicle: Klucel (hydroxypropylcellulose) (HPC)) 96 % of control.
As to `Oc1ccc2ccccc2c1CN1CCCCC1`, the T/C reads like this: (dose: 75.0 mg/kg/injection, schedule: Q01DX009 (ip), vehicle: saline) 92 % of control; (dose: 100.0 mg/kg/injection, schedule: Q04DX003 (ip), vehicle: saline) 90 % of control; (dose: 150.0 mg/kg/injection, schedule: Q01DX009 (ip), vehicle: saline) 95 % of control; (dose: 200.0 mg/kg/injection, schedule: Q04DX003 (ip), vehicle: saline) 101 % of control; (dose: 300.0 mg/kg/injection, schedule: Q01DX009 (ip), vehicle: saline) 89 % of control; (dose: 400.0 mg/kg/injection, schedule: Q04DX003 (ip), vehicle: saline) 106 % of control.
As to `Cc1cc(C)c(NC(=O)c2ccccc2Cl)c(C)c1`, the T/C reads like this: under setting [1], 93 % of control; under setting [2], 93 % of control; under setting [3], 97 % of control.
For the compound `CCCCCCCCOC(=O)c1ccc2c(c1)Nc1cc3ccccc3cc1N2`, the T/C under setting [8] was 105 % of control, the T/C under setting [9] is 101 % of control and the T/C under setting [10] was 92 % of control.
In the case of `O=S1C(c2ccccc2)CC1c1ccccc1` (stereo not drawn), the T/C under setting [5] is 100 % of control, the T/C under setting [6] is 105 % of control and the T/C under setting [7] is 96 % of control.
Regarding `O=S(=O)(Nc1ccccc1Cl)c1ccccc1`, the T/C by setting is: (dose: 100.0 mg/kg/injection, schedule: Q01DX009 (ip), vehicle: gum acacia) 100 % of control; (dose: 100.0 mg/kg/injection, schedule: Q04DX003 (ip), vehicle: gum acacia) 93 % of control; (dose: 200.0 mg/kg/injection, schedule: Q01DX009 (ip), vehicle: gum acacia) 98 % of control; (dose: 200.0 mg/kg/injection, schedule: Q04DX003 (ip), vehicle: gum acacia) 95 % of control; (dose: 400.0 mg/kg/injection, schedule: Q01DX009 (ip), vehicle: gum acacia) 94 % of control; (dose: 400.0 mg/kg/injection, schedule: Q04DX003 (ip), vehicle: gum acacia) 95 % of control.
As for `N#CSCC1OCC(C(O)C(O)C2COC(CSC#N)O2)O1` (stereo not drawn), the T/C by setting is: under setting [8], 95 % of control; under setting [9], 98 % of control; under setting [10], 95 % of control.
With `O=C(Cn1cc[n+](CC(=O)c2ccccc2)c1)c1ccccc1`, the T/C was 98 % of control (dose: 25.0 mg/kg/injection, schedule: Q01DX009 (ip), vehicle: saline with Tween-80); 90 % of control (dose: 50.0 mg/kg/injection, schedule: Q01DX009 (ip), vehicle: saline with Tween-80); 102 % of control under setting [1].

Values taken from PubChem BioAssay AID248 (DTP/NCI, 2004).
